Data: patent publication US20110207800A1, “HIV-Dependent expression constructs and uses therefore” (priority 2008, published 2011)

Tests used:
AnlO = assay type: cell-based, Bacillus anthracis
α-hemolysin = α-hemolysin (Staphylococcus aureus, UniProt P09616); assay type: cell-based
[1] = system: HIV-1-positive J1.1 cell line; assay type: cell-based
healthy macrophages = assay type: cell-based, human

Chain of α-hemolysin (P09616 27-319 limits assumed): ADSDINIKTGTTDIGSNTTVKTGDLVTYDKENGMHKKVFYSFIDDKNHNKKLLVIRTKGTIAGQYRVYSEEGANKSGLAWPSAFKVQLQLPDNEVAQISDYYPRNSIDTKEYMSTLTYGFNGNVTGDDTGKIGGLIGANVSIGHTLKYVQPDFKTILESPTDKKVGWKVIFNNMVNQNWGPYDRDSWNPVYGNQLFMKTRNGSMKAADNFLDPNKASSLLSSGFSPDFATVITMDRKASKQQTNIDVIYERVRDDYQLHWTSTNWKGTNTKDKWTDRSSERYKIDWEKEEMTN

6-boc orthinine amide-β-cyclodextrin [6-BOCD]
change of GFP-positive cell population (inhibition of cytolysis by anlO) (AnlO): doubling
number of GFP positive cells (α-hemolysin): did not increase
infectivity of virus generated in the presence of the compound [1]: no difference in infectivity

COc1ccc(C[C@H](N)C(=O)N[C@H]2[C@@H](O)[C@H](n3cnc4c(N(C)C)ncnc43)O[C@@H]2CO)cc1 [puromycin]
cytolysis, share of the cells (healthy macrophages): 25%
time to detection of cytolysis (healthy macrophages; 500 ng/ml): ≤ 2 days
